Calls of active or inactive are those of the source. The rule behind the calls is not given here.

Here are results for 2 molecules from ChEMBL document CHEMBL3739353, “Arthroamide, a Cyclic Depsipeptide with Quorum Sensing Inhibitory Activity from Arthrobacter sp” (J Nat Prod, 2015).

In one assay the test system is Escherichia coli. Nature of the assay: Antimicrobial activity against Escherichia coli at 100 ug/ml. The class given is functional, organism-based.
For a further assay, the system named is Candida albicans. Nature of the assay: Antimicrobial activity against Candida albicans at 100 ug/ml. The format is functional, organism-based.
A further assay has as its system Micrococcus luteus. The experiment in a line: Antimicrobial activity against Micrococcus luteus at 100 ug/ml. The class given is functional, organism-based.
In assay [1] the target is T1, Accessory gene regulator protein A (Staphylococcus aureus) (UniProt P0A0I7).
T1 sequence (whole entry): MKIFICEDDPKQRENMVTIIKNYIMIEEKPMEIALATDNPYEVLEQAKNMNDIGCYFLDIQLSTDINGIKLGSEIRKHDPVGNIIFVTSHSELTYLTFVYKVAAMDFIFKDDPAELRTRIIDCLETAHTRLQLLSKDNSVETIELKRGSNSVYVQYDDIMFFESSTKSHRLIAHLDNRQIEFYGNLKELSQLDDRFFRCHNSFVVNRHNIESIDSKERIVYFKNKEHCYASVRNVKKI
The experiment in a line: Inhibition of agr-mediated quorum sensing in Staphylococcus aureus at 5 to 10 uM after 5 hrs by luminescence analysis.

Consider `CC(C)[C@@H]1NC(=O)C[C@H](/C=C/c2ccccc2)OC(=O)[C@H](C(C)C)NC(=O)[C@H](C(C)C)NC(=O)[C@@H](C)NC1=O`, for which the outcome in the assay with Escherichia coli, in the assay with Candida albicans and with Micrococcus luteus was inactive. In assay [1], this molecule came in with an inhibition of 10%.
`CC[C@H](C)[C@@H]1NC(=O)[C@@H](C)NC(=O)[C@H](C(C)C)NC(=O)C[C@H](/C=C/c2ccccc2)OC(=O)[C@H](C(C)C)NC1=O` yielded an inhibition in assay [1] of 10%.

As usually defined, the inhibition is the drop in the measured response relative to a control, in per cent. High values mean a strong effect, low ones a weak effect.
